Values after ≈ are worked out from the molar mass of the structure shown. Where two headings read alike, the source gives them in different places. Where a SMILES comes first, the peptide text is derived from it. Bridges are numbered along the chain shown (N, C = ends). [ ]: non-standard residue; d: D form. The star is where a group is joined. X1 = CC[C@H](C)CCCCC(=O)*; Dab = NCC[C@H](N)C(=O)O
Assays:
[1] = system: E. coli BW25113 ΔompF; format: cell-based, Escherichia coli; conditions: Mueller–Hinton broth, 24 h, 37 °C, median
Method: (§1) The reduction of resazurin to resorufin was measured.

[2] = system: E. coli BW25113 ΔmdtM; format: cell-based, Escherichia coli; conditions: Mueller–Hinton broth, 24 h, 37 °C, median
Method: as §1

[3] = system: E. coli BW25113 ΔsbmA; format: cell-based, Escherichia coli; conditions: Mueller–Hinton broth, 24 h, 37 °C, median
Method: as §1

[4] = system: E. coli MDR CI 1057; conditions: Mueller-Hinton broth supplemented with 0.9% NaCl; for Minimum inhibitory concentration E.coli MDR 1057 14 days w/o AMP: after 14 passages without antimicrobial agents; for Minimum inhibitory concentration E.coli MDR 1057 0 days: before passages
Method: (§2) Bacterial test cultures were grown in the Mueller-Hinton broth (MH; Sigma, St. Louis, MO, USA) at 37 °C to mid-log phase and then diluted with the 2× MH medium supplemented with 1.8% NaCl or without salt so that to reach a final cell concentration of 10^6 CFU/mL. 50 µL of the obtained bacterial suspension were added to aliquots of 50 µL of the peptide solutions serially diluted with sterilized 0.1% bovine serum albumin (BSA) in 96-well flat-bottom polystyrene microplates (Eppendorf #0030730011, Hamburg, Germany). […] To verify MIC values, the respiratory activity of the bacteria was determined. Briefly, 20 µL of 0.1 mg/mL resazurin (a redox indicator; Sigma, St. Louis, MO, USA) was added to the wells after 24 h of incubation, and the plate was incubated for an additional two hours. The reduction of resazurin to resorufin was measured. […] The results were expressed as the median values determined based on at least three independent experiments performed in triplicate.
(§3) Resistance induction experiments were performed using the previously described method. Briefly, on day one, the overnight culture of wild-type bacteria was diluted with the 2× MH broth supplemented with 1.8% NaCl to reach a final cell concentration of 10^6 CFU/mL. 50 µL of the obtained bacterial suspension were added to aliquots of 50 µL of the peptide solutions serially diluted with the sterilized 0.1% BSA in 96-well flat-bottom polystyrene microplates. After incubation for 20 ± 2 h at 37 °C and 950 rpm, MICs were determined as described above. For each subsequent daily transfer, 2–4 μL of the inoculum taken from the first well containing a sub-inhibitory drug concentration were diluted with 2 mL of the fresh 2× MH broth supplemented with 1.8% NaCl. […] 14 repeated passages in the presence of antimicrobial agents were made for each bacterial strain during the experiment. Bacteria that grew at the highest concentration of AMPs on the final day were passaged a further 3 times on drug-free agar plates before determining the final MIC value.

[5] = system: VicBac[1–22]-resistant E. coli MDR 1057 strain; conditions: Mueller-Hinton broth supplemented with 0.9% NaCl; strain selected 14 days with VicBac[1-22]; cross-resistance
Method: as §2, §3

[6] = system: E. coli BW25113; format: cell-based, Escherichia coli; conditions: Mueller–Hinton broth, 24 h, 37 °C, median
Method: as §1

[7] = system: E. coli MDR 1057; conditions: MH broth with 0.9% NaCl, 14 passages with the same agent (VicBac[1–22]: after 10 passages)
Method: Resistance induction experiments were performed using the previously described method. Briefly, on day one, the overnight culture of wild-type bacteria was diluted with the 2× MH broth supplemented with 1.8% NaCl to reach a final cell concentration of 10^6 CFU/mL. 50 µL of the obtained bacterial suspension were added to aliquots of 50 µL of the peptide solutions serially diluted with the sterilized 0.1% BSA in 96-well flat-bottom polystyrene microplates. After incubation for 20 ± 2 h at 37 °C and 950 rpm, MICs were determined as described above. For each subsequent daily transfer, 2–4 μL of the inoculum taken from the first well containing a sub-inhibitory drug concentration were diluted with 2 mL of the fresh 2× MH broth supplemented with 1.8% NaCl. […] Bacteria that grew at the highest concentration of AMPs on the final day were passaged a further 3 times on drug-free agar plates before determining the final MIC value.

| SMILES | Minimum inhibitory concentration, E. coli strain ΔompF ([1]; 0.9% NaCl: +) [µM] | Minimum inhibitory concentration, E. coli strain ΔompF ([1]; 0.9% NaCl: −) [µM] | Minimum inhibitory concentration, E. coli strain ΔmdtM ([2]; 0.9% NaCl: +) [µM] | Minimum inhibitory concentration, E. coli strain ΔmdtM ([2]; 0.9% NaCl: −) [µM] | Minimum inhibitory concentration, E. coli strain ΔsbmA ([3]; 0.9% NaCl: +) [µM] | Minimum inhibitory concentration, E. coli strain ΔsbmA ([3]; 0.9% NaCl: −) [µM] | Minimum inhibitory concentration E.coli MDR 1057 14 days w/o AMP [4] [µM] | Minimum inhibitory concentration E.coli MDR 1057 0 days [4] [µM] | Minimum inhibitory concentration E.coli MDR 1057 14 days with VicBac [1-22] [5] [µM] | Minimum inhibitory concentration, E. coli strain BW25113 ([6]; 0.9% NaCl: +) [µM] | Minimum inhibitory concentration, E. coli strain BW25113 ([6]; 0.9% NaCl: −) [µM] | increase in MIC value after serial passage selection [7] [fold] |
| --- | --- | --- | --- | --- | --- | --- | --- | --- | --- | --- | --- | --- |
| CC[C@H](C)[C@H](NC(=O)[C@H](CCCNC(=N)N)NC(=O)[C@@H](N)CCCNC(=N)N)C(=O)N[C@@H](CCCNC(=N)N)C(=O)N1CCC[C@H]1C(=O)N[C@@H](CCCNC(=N)N)C(=O)N1CCC[C@H]1C(=O)N1CCC[C@H]1C(=O)N[C@@H](CCCNC(=N)N)C(=O)N[C@@H](CC(C)C)C(=O)N1CCC[C@H]1C(=O)N[C@@H](CCCNC(=N)N)C(=O)N1CCC[C@H]1C(=O)N[C@@H](CCCNC(=N)N)C(=O)N1CCC[C@H]1C(=O)N[C@@H](CCCNC(=N)N)C(=O)N1CCC[C@H]1C(=O)N[C@@H](CC(C)C)C(=O)N1CCC[C@H]1C(=O)N[C@@H](Cc1ccccc1)C(=O)N1CCC[C@H]1C(=O)N[C@@H](CCCNC(=N)N)C(=O)O [Bac7[1-22], reference compound] (H-RRIRPRPPRLPRPRPRPLPFPR-OH) | 32 (≈ 89.1 µg/mL) | 2 (≈ 5.57 µg/mL) | 1 (≈ 2.78 µg/mL) | 4 (≈ 11.1 µg/mL) | 32 (≈ 89.1 µg/mL) | 1 (≈ 2.78 µg/mL) | 1 (≈ 2.78 µg/mL) | 1 (≈ 2.78 µg/mL) | > 128 |  |  |  |
| CC[C@H](C)[C@H](NC(=O)[C@H](CCCNC(=N)N)NC(=O)[C@@H](N)CCCNC(=N)N)C(=O)N[C@@H](CCCNC(=N)N)C(=O)N[C@@H](CCCNC(=N)N)C(=O)N1CCC[C@H]1C(=O)N[C@@H](CCCNC(=N)N)C(=O)N[C@@H](CC(C)C)C(=O)N1CCC[C@H]1C(=O)N[C@@H](CCCNC(=N)N)C(=O)N1CCC[C@H]1C(=O)N[C@@H](CCCNC(=N)N)C(=O)N[C@H](C(=O)N1CCC[C@H]1C(=O)O)C(C)C [VicBac[1-14]] (H-RRIRRPRLPRPRVP-OH; N-terminus and C-terminus assumed) | > 64 | 64 (≈ 117 µg/mL) | > 64 | 32 (≈ 58.4 µg/mL) | > 64 | 64 (≈ 117 µg/mL) |  |  |  |  |  |  |
| CC[C@H](C)[C@H](NC(=O)[C@H](CCCNC(=N)N)NC(=O)[C@@H](N)CCCNC(=N)N)C(=O)N[C@@H](CCCNC(=N)N)C(=O)N[C@@H](CCCNC(=N)N)C(=O)N1CCC[C@H]1C(=O)N[C@@H](CCCNC(=N)N)C(=O)N[C@@H](CC(C)C)C(=O)N1CCC[C@H]1C(=O)N[C@@H](CCCNC(=N)N)C(=O)N1CCC[C@H]1C(=O)N[C@@H](CCCNC(=N)N)C(=O)N[C@H](C(=O)N1CCC[C@H]1C(=O)N[C@@H](CCCNC(=N)N)C(=O)N1CCC[C@H]1C(=O)N[C@@H](CCCNC(=N)N)C(=O)N[C@H](C(=O)N1CCC[C@H]1C(=O)N1CCC[C@H]1C(=O)O)[C@@H](C)CC)C(C)C [VicBac[1-20]] (H-RRIRRPRLPRPRVPRPRIPP-OH; N-terminus and C-terminus assumed) | 64 (≈ 163 µg/mL) | 16 (≈ 40.7 µg/mL) | 4 (≈ 10.2 µg/mL) | 8 (≈ 20.3 µg/mL) | > 64 | 8 (≈ 20.3 µg/mL) |  |  |  |  |  |  |
| CC[C@H](C)[C@H](NC(=O)[C@H](CCCCN)NC(=O)[C@H](CCC(=O)O)NC(=O)[C@H](CCCCN)NC(=O)[C@H](CO)NC(=O)[C@H](CCCCN)NC(=O)[C@H](CCCNC(=N)N)NC(=O)[C@H](Cc1ccccc1)NC(=O)[C@H](Cc1ccccc1)NC(=O)[C@H](CC(=O)O)NC(=O)CNC(=O)[C@H](CC(C)C)NC(=O)[C@@H](N)CC(C)C)C(=O)NCC(=O)N[C@@H](CCCCN)C(=O)N[C@@H](CCC(=O)O)C(=O)N[C@@H](Cc1ccccc1)C(=O)N[C@@H](CCCCN)C(=O)N[C@@H](CCCNC(=N)N)C(=O)N[C@H](C(=O)N[C@H](C(=O)N[C@@H](CCC(N)=O)C(=O)N[C@@H](CCCNC(=N)N)C(=O)N[C@H](C(=O)N[C@@H](CCCCN)C(=O)N[C@@H](CC(=O)O)C(=O)N[C@@H](Cc1ccccc1)C(=O)N[C@@H](CC(C)C)C(=O)N[C@@H](CCCNC(=N)N)C(=O)N[C@@H](CC(N)=O)C(=O)N[C@@H](CC(C)C)C(=O)N[C@H](C(=O)N1CCC[C@H]1C(=O)N[C@@H](CCCNC(=N)N)C(=O)N[C@H](C(=O)N[C@@H](CCC(=O)O)C(=O)N[C@@H](CO)C(=O)O)[C@@H](C)O)C(C)C)[C@@H](C)CC)C(C)C)[C@@H](C)CC [LL-37, reference compound] | 2 (≈ 8.99 µg/mL) | 4 (≈ 18 µg/mL) | 4 (≈ 18 µg/mL) | 4 (≈ 18 µg/mL) | 2 (≈ 8.99 µg/mL) | 4 (≈ 18 µg/mL) | 4 (≈ 18 µg/mL) | 4 (≈ 18 µg/mL) | 4 | 2 (≈ 8.99 µg/mL) | 4 (≈ 18 µg/mL) | 2 |
| CC(C)C[C@H](NC(=O)[C@H](CCCNC(=N)N)NC(=O)[C@@H]1CCCN1C(=O)[C@@H]1CCCN1C(=O)[C@H](Cc1ccccc1)NC(=O)[C@H](Cc1ccccc1)NC(=O)[C@@H]1CCCN1C(=O)[C@@H]1CCCN1C(=O)[C@@H]1CCCN1C(=O)[C@H](CCCNC(=N)N)NC(=O)[C@@H]1CCCN1C(=O)[C@H](CCCNC(=N)N)NC(=O)[C@@H]1CCCN1C(=O)[C@H](CC(C)C)NC(=O)[C@H](Cc1ccc(O)cc1)NC(=O)[C@@H]1CCCN1C(=O)[C@@H]1CCCN1C(=O)[C@H](CCCNC(=N)N)NC(=O)[C@@H]1CCCN1C(=O)[C@H](CCCNC(=N)N)NC(=O)[C@H](CCCNC(=N)N)NC(=O)[C@@H](N)CCCNC(=N)N)C(=O)O [PR-39[1-22]] (H-RRRPRPPYLPRPRPPPFFPPRL-OH; N-terminus and C-terminus assumed) |  |  |  |  |  |  | 2 (≈ 5.53 µg/mL) | 2 (≈ 5.53 µg/mL) | > 128 |  |  |  |
| CC[C@H](C)CCCCC(=O)N[C@@H](CCN)C(=O)N[C@H](C(=O)N[C@@H](CCN)C(=O)N[C@H]1CCNC(=O)[C@H]([C@@H](C)O)NC(=O)[C@H](CCN)NC(=O)[C@H](CCN)NC(=O)[C@H](CC(C)C)NC(=O)[C@@H](Cc2ccccc2)NC(=O)[C@H](CCN)NC1=O)[C@@H](C)O [Polymyxin B, polymyxin B] (X1-[Dab]T[Dab][Dab][Dab][dF]L[Dab][Dab]T; lactam 4-C (inferred); N-terminus assumed) |  |  |  |  |  |  | 0.125 (≈ 0.15 µg/mL) | 0.125 (≈ 0.15 µg/mL) | 1 |  |  | 128 |
